“And” between values parts separate entries of the source, which are not always exact repeats. Identical values can stand only once. No end group written: not given here.
Key:
[1] = biological target: ScSte2 with protease ScBar1 (Saccharomyces cerevisiae, UniProt D6VTK4); assay type: cell-based
ScSte2 = ScSte2 (Saccharomyces cerevisiae, UniProt D6VTK4); experiment: ScSte2 biosensor dose-response, ymTurquoise2 readout, no protease (incl. ScPep alanine scan, yTC391); assay type: cell-based; details: Hill function best-fit ± standard error
ScSte2, sequence (D6VTK4 whole entry): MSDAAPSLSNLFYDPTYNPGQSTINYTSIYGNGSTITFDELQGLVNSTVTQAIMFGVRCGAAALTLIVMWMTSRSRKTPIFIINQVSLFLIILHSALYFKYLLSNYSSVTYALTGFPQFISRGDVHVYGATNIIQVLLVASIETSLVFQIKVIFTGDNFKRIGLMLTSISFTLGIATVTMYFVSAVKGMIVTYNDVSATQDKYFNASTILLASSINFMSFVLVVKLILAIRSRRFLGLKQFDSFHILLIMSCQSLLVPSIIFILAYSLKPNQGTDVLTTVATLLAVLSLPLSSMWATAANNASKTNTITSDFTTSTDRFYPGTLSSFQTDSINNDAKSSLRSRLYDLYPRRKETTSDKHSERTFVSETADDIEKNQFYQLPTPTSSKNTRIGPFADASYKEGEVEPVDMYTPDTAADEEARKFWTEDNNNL

CaSte2 = details: for Hill Slope: CaSte2 (yTC384), no protease, Hill function best-fit ± standard error
[2] = tested on: CaSte2 with protease CaBar1; details: CaSte2 + CaBar1 (yBB02); Hill function best-fit ± standard error
[3] = biological target: T1, Saccharomyces cerevisiae pheromone GPCR ScSte2 (Saccharomyces cerevisiae) (UniProt D6VTK4); experiment: cell-based or functional assay
T1 sequence: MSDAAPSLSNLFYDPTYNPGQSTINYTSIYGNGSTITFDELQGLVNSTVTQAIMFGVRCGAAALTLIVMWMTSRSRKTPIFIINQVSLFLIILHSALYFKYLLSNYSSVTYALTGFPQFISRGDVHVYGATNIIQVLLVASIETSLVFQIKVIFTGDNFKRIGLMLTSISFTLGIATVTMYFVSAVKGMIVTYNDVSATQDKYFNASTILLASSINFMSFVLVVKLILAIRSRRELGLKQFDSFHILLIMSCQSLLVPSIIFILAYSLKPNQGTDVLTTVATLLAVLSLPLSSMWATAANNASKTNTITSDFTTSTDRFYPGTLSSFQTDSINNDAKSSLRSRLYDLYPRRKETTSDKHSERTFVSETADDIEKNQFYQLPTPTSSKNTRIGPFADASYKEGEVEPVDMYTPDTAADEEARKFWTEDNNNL

[4] = biological target: T2, Candida albicans pheromone GPCR CaSte2 (Candida albicans); experiment: cell-based or functional assay
T2 sequence: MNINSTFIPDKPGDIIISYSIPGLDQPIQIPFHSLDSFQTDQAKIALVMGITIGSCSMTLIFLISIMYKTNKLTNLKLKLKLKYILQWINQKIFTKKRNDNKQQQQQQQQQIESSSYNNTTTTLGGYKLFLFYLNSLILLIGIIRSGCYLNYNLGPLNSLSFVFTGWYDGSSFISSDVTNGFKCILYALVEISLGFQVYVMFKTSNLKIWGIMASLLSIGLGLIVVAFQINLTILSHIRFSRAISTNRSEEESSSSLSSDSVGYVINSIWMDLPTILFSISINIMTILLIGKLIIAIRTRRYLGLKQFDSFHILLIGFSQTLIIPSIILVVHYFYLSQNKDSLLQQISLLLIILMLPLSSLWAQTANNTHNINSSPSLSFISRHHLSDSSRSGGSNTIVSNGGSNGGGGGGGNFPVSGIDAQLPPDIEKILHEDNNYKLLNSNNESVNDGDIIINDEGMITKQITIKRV

[5] = biological target: T3, A. fumigatus pheromone GPCR (AfuSte2) (Aspergillus fumigatus); experiment: cell-based or functional assay
T3 sequence: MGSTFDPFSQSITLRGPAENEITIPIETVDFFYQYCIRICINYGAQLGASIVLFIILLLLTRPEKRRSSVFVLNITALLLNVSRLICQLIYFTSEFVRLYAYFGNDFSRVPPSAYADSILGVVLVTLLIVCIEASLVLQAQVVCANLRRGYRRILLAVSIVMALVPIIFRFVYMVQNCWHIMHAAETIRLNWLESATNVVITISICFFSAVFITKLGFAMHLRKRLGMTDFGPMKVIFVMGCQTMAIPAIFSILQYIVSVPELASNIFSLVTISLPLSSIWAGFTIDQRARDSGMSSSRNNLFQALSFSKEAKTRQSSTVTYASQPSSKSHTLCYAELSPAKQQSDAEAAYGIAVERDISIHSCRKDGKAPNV

ScSte2 with protease ScBar1, sequence (D6VTK4 whole entry): as the sequence (D6VTK4 whole entry) above

With WHWLQLKPGQPAY [ScPep12A] the Bottom [1] was 2.5 ± 2.9 A.U, the “Hill Slope” value [1] was 1.3 ± 0.1 and the LogEC50 [1] was −6.0 ± 0.1 M. For the same substance, the Top [1] was 450 ± 10 A.U.
In the case of WHWLQLKPAQPMY [ScPep9A], the “Hill Slope” value (ScSte2) is reported as 5.0 ± 1.3, the Bottom [1] is reported as 3.7 ± 2.1 A.U and the “Hill Slope” value [1] is reported as 1.2 ± 0.1. For the same substance, the LogEC50 [1] was −4.8 ± 0.2 M and the Top [1] was 440 ± 10 A.U.
For GFRLTNFGAFEPG [CaPep9A], the “Hill Slope” value (CaSte2) was 1.9 ± 0.1 and the “Hill Slope” value [2] was 1.7 ± 0.2.
With ScPep6A (peptide) the Top [3] was 310 A.U. and 390 A.U.
ScPep3A (peptide) was tested, and the Top [3] was 280 A.U. and 370 A.U.
In the case of CaPep7A (peptide), the LogEC50 [4] is reported as -5.5 log M and -5.6 log M and the Top [4] is reported as 34 A.U. and 17 A.U.
ScPep10A (peptide) was tested, and the Top [3] was 380 A.U. and 420 A.U.
For ScPep12A (peptide), the Top [3] was 410 A.U. and 450 A.U.
For GFRLTAFGYFEPG [CaPep6A], the “Hill Slope” value (CaSte2) was 4.4 ± 0.4 and the “Hill Slope” value [2] was 1.7 ± 0.2.
With ScPep1A (peptide) the Top [3] was 320 A.U. and 350 A.U.
With WAWLQLKPGQPMY [ScPep2A] the “Hill Slope” value (ScSte2) was 3.7 ± 0.2, the Bottom [1] was 5.9 ± 3.0 A.U and the “Hill Slope” value [1] was 1.5 ± 0.1. For the same substance, the LogEC50 [1] was −5.0 ± 0.1 M and the Top [1] was 350 ± 10 A.U.
For WHWAQLKPGQPMY [ScPep4A], the Bottom [1] was −1.6 ± 2.9 A.U, the “Hill Slope” value [1] was 0.72 ± 0.04 and the LogEC50 [1] was −5.4 ± 0.1 M. For the same substance, the Top [1] was 340 ± 10 A.U.
With GFRLTNAGYFEPG [7A] the “Hill Slope” value (CaSte2) was 1.4 ± 0.1, the “response of CaSte2” value (CaSte2; alanine scan, system without CaBar1 (yTC384)) was “practically non-responsive” and the “Hill Slope” value [2] was 2.2 ± 0.4.
In the case of WHWLALKPGQPMY [ScPep5A], the “Hill Slope” value (ScSte2) is reported as 3.4 ± 0.3, the Bottom [1] is reported as 0.52 ± 8.7 A.U and the “Hill Slope” value [1] is reported as 1.2 ± 0.2. For the same substance, the LogEC50 [1] was −6.3 ± 0.1 M and the Top [1] was 340 ± 10 A.U.
ScPep7A (peptide) was tested, and the Top [3] was 400 A.U. and 380 A.U.
For ScPep4A (peptide), the Top [3] was 250 A.U. and 340 A.U.
“synthetic A. fumigatus pheromone peptide (AfuPep)” showed an EC50, GFP of the sender strain [5] of 4 nM, an EC50, mCherry reporter in yeast [5] of 100 nM and an EC50, mCherry, fine-tuned optimized strain [5] of 40 nM. It also gave an EC50, mCherry, strain with natural signaling pathway [5] of 10 nM, a LoD, lycopene readout, yTC590 [5] of 50 nM and an activation fold change, fine-tuned optimized strain [5] of 2900 fold. The activation fold change, strain with natural signaling pathway [5] was 19 fold, the fold change of fluorescence readout [5] was 4000 fold and the limit of detection (LoD), lycopene readout, yTC527 [5] was 30 nM. For the same substance, the maximal activation, mCherry, fine-tuned optimized strain [5] was 2900 A.U and the maximal activation, mCherry, strain with natural signaling pathway (yMJ194) [5] was 450 A.U.
For “Smt3-Scα-Smt3 (two Smt3 fused in tandem with an α-factor linker, N-terminus 6x-His-tag) (from UniProt Q12306 1-98; Q12306 2-98)”, the EC50 (mCherry/OD600) [3] was 1080 nM.
AFRLTNFGYFEPG [CaPep1A] was tested, and the “Hill Slope” value (CaSte2) was 3.0 ± 0.4 and the “Hill Slope” value [2] was 1.1 ± 0.22.
In the case of WHWLQLKPGQAMY [ScPep11A], the “Hill Slope” value (ScSte2) is reported as 4.6 ± 1.3, the Bottom [1] is reported as 8.0 ± 2.5 A.U and the “Hill Slope” value [1] is reported as 1.5 ± 0.1. The LogEC50 [1] was −5.6 ± 0.1 M and the Top [1] was 410 ± 10 A.U.
ScPep9A (peptide) was tested, and the Top [3] was 370 A.U. and 440 A.U.
With GFRLTNFAYFEPG [CaPep8A] the “Hill Slope” value (CaSte2) was 1.3 ± 0.3 and the “Hill Slope” value [2] was 1.0 ± 0.1.
With WHWLQLAPGQPMY [ScPep7A] the “Hill Slope” value (ScSte2) was 2.6 ± 0.4, the Bottom [1] was 5.7 ± 1.3 A.U and the “Hill Slope” value [1] was 1.7 ± 0.1. The LogEC50 [1] was −5.4 ± 0.1 M and the Top [1] was 380 ± 10 A.U.
CaPep3A (peptide) was tested, and the Top [4] was 460 A.U.
CaPep6A (peptide) was tested, and the LogEC50 [4] was -6.2 log M and -5.9 log M and the Top [4] was 570 A.U. and 450 A.U.
For ScPep8A (peptide), the Top [3] was 430 A.U. and 440 A.U.
In the case of WHWLQLKAGQPMY [ScPep8A], the “Hill Slope” value (ScSte2) is reported as 2.7 ± 0.1, the Bottom [1] is reported as 4.6 ± 2.6 A.U and the “Hill Slope” value [1] is reported as 1.1 ± 0.1. It also gave a LogEC50 [1] of −5.6 ± 0.1 M and a Top [1] of 440 ± 10 A.U.

Reference: patent US20240368664A1, “LIVE YEAST BIOSENSORS AND METHODS OF USE THEREOF” (priority 2021, published 2024)
